Literature values as cited in patent US20190060287A1 (ADARE PHARMACEUTICALS, INC., priority 2017, published 2019).
Like-named read-outs stand apart in the source and are kept apart here.

What was measured:
[1] = multiple dose controlled clinical studies

SMILES: Clc1ccc2nsnc2c1NC1=NCCN1 [tizanidine, Tizanidine]
- patients reporting sedation as a secondary event ([1]; patients receiving any dose of tizanidine): 48%
- cases in which the sedation was rated as severe ([1]; share of the sedation cases): 10%
- patients reporting that they had been drowsy during the 6 hour study (single dose 8 mg): 76%
- patients reporting that they had been drowsy during the 6 hour study (single dose 16 mg): 92%
